This is an account of results in the OPERA property sets (Mansouri et al. 2018).

Where a SMILES comes first, the peptide text is derived from it.

For orientation: logP means a log measure of how a compound divides between an organic and an aqueous phase. Read a high logP as higher lipophilicity. Molecule `O[C@@H](c1cc(C(F)(F)F)nc2c(C(F)(F)F)cccc12)[C@H]1CCCCN1` had a logP of 4.49.
On to `CCCCC(O)C(CCCCOc1ccc(F)cc1)n1cncn1` (stereo not drawn), for which the logP was 3.38.
The value for `Cn1c(N)nc2c3cccnc3ccc21` was 1.47; that for `COc1ccc2c(C)cc(=O)oc2c1` was 1.89; that for `COc1nc(N)nc(NC(C)(C)C)n1` was 1.93.
`Cc1cccc2c1OP(=O)(OCC1C=CC(n3cc(C)c(=O)[nH]c3=O)O1)OC2` (stereo not drawn) showed a logP of 0.71.
`COCCCNC(=O)Cn1cnc([N+](=O)[O-])n1`: the logP is -0.49.
The value for `CCOC(=O)c1cnc2ccc(C)cn2c1=O` was 0.9.
In the case of `CCCOC(=O)c1cnc2n(c1=O)C(C)CCC2` (stereo not drawn) it was 1.14.
The value for `COc1cc(OC)nc(Oc2cccc(C(F)(F)F)c2C(=O)O)n1` was 2.7; that for `CCCCC(O)C(CCCCOc1cccc2ccccc12)n1cncn1` (stereo not drawn) was 4.31.
`COCCNc1[nH]cnc2ncnc1-2`: the logP amounted to 0.42.
The value for `COc1cc2ncnc(Nc3cccc(F)c3)c2cc1OC` was 2.96; that for `O=C1C=C(N2CCOCC2)CN1c1ccc(Cl)cc1` was 1.9.
In the case of `O=C1NC(=O)C(c2ccccc2)(c2ccccc2)N1S(=O)(=O)c1ccc(O)cc1` it was 3.58; in that of `CC(=O)NC(CCCCNC(=O)N(CCCl)N=O)C(=O)NCc1ccccc1` (stereo not drawn), 1.54; in that of `NC1=NCC(COc2ccccc2[N+](=O)[O-])O1` (stereo not drawn), 0.8.
`S=C=NCCCCc1ccccc1`: the logP was determined as 4.
In the case of `CC(C)NC(=NC#N)NS(=O)(=O)c1cnccc1Nc1ccc(Cl)c(C(F)(F)F)c1` it was 3.27; in that of `CC#CC(=O)c1c(C)nc2c3c(c(C(=O)N(C)C)cn12)CCC(c1ccccc1)O3` (stereo not drawn), 3.4.
The value for `CCCC1C(=O)N(CCN(C)C)c2cccc(C(F)(F)F)c2CC1c1ccc(OC)cc1` (stereo not drawn) was 6.9.
Molecule `C[C@]12CC[C@@H](O)C[C@@H]1CC[C@@H]1[C@@H]2CC[C@]2(C)[C@@H](O)CC[C@@H]12` returned a logP of 4.16.
In the case of `CCC(C)C(NC(=O)CNC(=O)C1CCCN1C(=O)C(N)Cc1ccc(O)cc1)C(=O)O` (stereo not drawn) (H-YPGI-OH; configuration not given here) it was -1.65.
The value for `CC(C)=CCCC(C)=CCCC(=CCCC(C)=CCO)CO` was 4.7; that for `Oc1cccc(CNc2ncnc3nc[nH]c23)c1` was 1.56.
The value for `Cc1c(O)c(=O)ccn1CCCOC(=O)c1ccccc1O` was 1.4; that for `Cc1cc2c(nn1)-c1ccccc1C2=O` was 1.58.
`CCCCCCCNCc1ccc(C)cc1` gave a logP of 5.12.
In the case of `CCCN(CCc1cccs1)C1CCc2c(O)cccc2C1` (stereo not drawn) it was 4.7.
The value for `O=C1c2ccccc2-c2nnc(C(F)(F)F)cc21` was 2.21.
In the case of `OCC1OC(n2cnc3c(NCCc4ccccc4)ncnc32)C(O)C1O` (stereo not drawn) it was 1.55.
`CON=C(C(=O)NC1C(=O)N2C(C(C)OC(=O)OC3CCCCC3)=CCSC12)c1csc(N)n1` (stereo not drawn) yielded a logP of 2.52.
The value for `COC(=O)C(C)=CC1C(C(=O)OCc2cccc(C#N)c2)C1(C)C` (stereo not drawn) was 3.83; that for `CC(C)CC(N)C(=O)NC(C(=O)NC(C(=O)O)C(C)C)C(C)C` (stereo not drawn) (H-Leu-Val-Val-OH; configuration not given here) was -2.1.
On to `O=C1N=C(N2CCCC2)CN1c1ccc(Cl)cc1`, for which the logP amounted to 2.
In the case of `CCC(C)NCc1cccc(S(=O)(=O)c2csc(S(N)(=O)=O)c2)c1` (stereo not drawn) it was 2.13; in that of `Nc1nc(N)c2c(S(=O)(=O)c3ccccc3)cccc2n1`, 2.14.
In the case of `COC(=O)C(C)NP(=O)(OCC1C=CC(n2cc(C)c(=O)[nH]c2=O)O1)Oc1ccc(C#N)cc1` (stereo not drawn) it was 0.91; in that of `O=C1C(NCCO)=C(N2CC2)C(=O)C(NCCO)=C1N1CC1`, -1.47; in that of `O=C1c2ccccc2-c2nnc(-c3ccccc3[N+](=O)[O-])cc21`, 2.64.
The value for `Nc1nc(Cl)nc2c1ncn2[C@H]1C[C@H](O)[C@@H](CO)O1` was 0.02.
Turning to `On1nnc2ccccc21`, the logP was found to be 0.69.
The value for `CC1CC2OC(=O)C(C)C2C(O)C2(C)C(=O)C=CC12` (stereo not drawn) was 0.53; that for `O=C(Nc1ccccc1)NC1CC(C(=O)O)Nc2cc(Cl)cc(Cl)c21` (stereo not drawn) was 3.28.
In the case of `CN(C)C(C)(C)CO` it was 0.29.
The value for `C[N+](C)([O-])Cc1ccccc1` was -0.57; that for `C=CC(=O)OC1CCCCC1` was 2.8; that for `C#CCN(N=O)C(=O)NCCCCC(NC(C)=O)C(=O)NCc1ccccc1` (stereo not drawn) was 1.64.
`Cc1cccc(C)c1Cc1ccccn1` returned a logP of 3.48.
The value for `CCOC(=O)C(C)(Cc1cccc2ccccc12)S(=O)(=O)c1ccc([N+](=O)[O-])cc1` (stereo not drawn) was 4.4; that for `COCc1[nH]c(-c2ccc(OCC(O)CNCCc3ccc(OC)c(OC)c3)cc2)nc1C` (stereo not drawn) was 2.8; that for `COC(=O)NC(=O)Cn1c(C)nc2ccccc2c1=O` was 0.4.
The value for `COC(=O)C(C)S(=O)(=O)c1ccc([N+](=O)[O-])cc1` (stereo not drawn) was 1.06.
Take `Clc1cc(Br)cc(Cl)c1N=C1NCCN1`: the logP is 2.46.
In the case of `CCCCN1CCCC1CNC(=O)c1cc(S(N)(=O)=O)cc2c1OC(C)C2` (stereo not drawn) it was 2.8; in that of `Cc1nc2c3c(c(C(=O)N(C)C)cn2c1C)CCC(c1ccc(F)cc1)O3` (stereo not drawn), 3.5.
In the case of `O=c1cc(CSc2nc3ccccc3[nH]2)occ1O` it was 1.51; in that of `CN1CCN(CCn2nnc3ccccc32)CC1`, 0.36; in that of `O=c1cc(CCl)occ1O`, 0.64.
Molecule `O=C1CCC(=O)N1c1ccc(Cl)c(Cl)c1` registered a logP of 1.35.
As for `CCC(C)C(N)C(=O)NC(Cc1ccc(O)cc1)C(=O)NC(C(=O)NC(C(=O)O)C(C)C)C(C)CC` (stereo not drawn) (H-IYIV-OH; configuration not given here), the logP was -1.09.
In the case of `N#Cc1cccc(Cn2cnc3ccccc32)c1` it was 2.47; in that of `COC(=O)c1c(Oc2nc(OC)cc(OC)n2)cccc1C(C)=NOCC(F)(F)F`, 3.39.
In the case of `CC1=CCCC(C)C12CCC(C(C)(C)O)C2` (stereo not drawn) it was 4.59; in that of `CCON=C(CC)C1=C(O)CC(c2cccc(Oc3ncc(C(F)(F)F)cc3F)c2)CC1=O` (stereo not drawn), 4.63; in that of `COC(=O)C(C)NP(=O)(OCC1C=CC(n2cc(C)c(=O)[nH]c2=O)O1)Oc1cccc(C(F)(F)F)c1` (stereo not drawn), 1.57.
In the case of `COC1CC(OC2C(O)CC(OC3CCC4(C)C(CCC5C4CCC4(C)C(C6=CC(=O)OC6)CCC54O)C3)OC2C)OC(C)C1OC1CC(O)C(O)C(C)O1` (stereo not drawn) it was 3.11.
Consider `CCCCOc1cccc(NC(=O)OCCN2CCCCC2)c1`, for which the logP turned out to be 5.04.
The value for `O=C(NC(Cc1c[nH]c2ccccc12)C(=O)O)OCC1c2ccccc2-c2ccccc21` (stereo not drawn) was 4.93; that for `CCC(C)C(NC(=O)C(Cc1ccccc1)NC(=O)C(CCSC)NC(=O)C(N)C(C)C)C(=O)O` (stereo not drawn) (H-VMFI-OH; configuration not given here) was -0.63; that for `CCOC(=O)C1=C(C)NC(C)=C(C(=O)OC)C1c1ccccc1` (stereo not drawn) was 4.14.
In the case of `S=c1nccc[nH]1` it was -1.11; in that of `CCOc1ccccc1CNc1[nH]cnc2ncnc1-2`, 2.72.
